Experimental data taken from patent US8546593B2, “Methods and compositions for novel liquid crystal delivery systems” (Copperhead Chemical Company, Inc., priority 2009, dated 2013).
≈ marks a conversion by molar mass, not a printed value.

Test system: Staphylococcus aureus
Assay: Minimum inhibitory concentration against Staphylococcus aureus
Type: cell-based
Settings: read-out: minimum inhibitory concentration (MIC)

CCCCCCCCCCCC(=O)OCC(O)CO (stereo not shown) [glycerol monolaurate]
MIC: 55 µg/mL (≈ 200 µM)
